Measured values reported in US12054746B2, “Method for inducing differentiation of pluripotent stem cells into intestinal epithelial cells” (PUBLIC UNIVERSITY CORPORATION NAGOYA CITY UNIVERSITY, priority 2018, dated 2024).
Read-outs that look alike come from different tables or passages of the source.

Legend:
in vitro [1] = conditions: human
Protocol: (§1) Human iPS cells (FF-1) were treated with a serum-free medium containing 100 ng/mL activin A for 24 hours to initiate differentiation. […] Thereafter, the cells were cultured in Advanced DMEM/F-12 containing 2% FBS, 1% GlutaMax, 100 units/mL penicillin G, 100 μg/mL streptomycin sulfate, and 250 ng/mL FGF2 for 96 hours to differentiate into small intestine stem cells. The small intestine stem cell-like cells after the treatment with activin A and FGF2 were detached with Aecutase and seeded on GFR Matrigel which was diluted 30-fold with human iPS medium in advance. After seeding, the cells were cultured for 19 to 23 days in Advanced DMEM/F-12 containing 2% FBS, 0.1 mM NEAA, 2 mM L-Glu, 100 units/mL penicillin G, 100 μg/mL streptomycin sulfate, 2% B27 supplement, 1% N2 supplement, 1% HepExtend supplement, 20 ng/mL EGF, and 30 μM Forskolin. From 12 to 16 days before the end of differentiation, differentiation into small intestinal epithelial cells was induced was by adding PD98059 to 20 μM, 5-aza-2′-deoxycytidine (5-aza-2′-dC) to 5 μM, and A-83-01 to 0.5 μM.
(§2) HESS (pH 6.5) was added to a chamber on the apical side of human iPS cell-derived small intestinal epithelial cells and Caco-2 cells seeded on Cell culture insert, HBSS (pH 7.4) was added to a chamber on the basal side, and pre-incubated at 37° C. for 60 minutes. […] A sample was collected from the receiver chamber every 15 minutes. The unchanged substance was measured using UPLC-MS/MS. Fa·Fg in humans was referred from, previous reports (References 1 to 6 below). • Reference 1: Takenaka T, Harada N, Kuze J, Chiba M, Iwao T, Matsunaga T. Human small intestinal epithelial cells differentiated from adult intestinal stem cells as a novel system for predicting oral drug absorption in humans. Drug Metab Dispos. […] Expert Opin Drug Metab Toxicol.

in vitro [2] = conditions: human, Caco-2
Protocol: as §2

[3] = cited from earlier work
human iPS cells = experiment: Marker gene expression (real-time RT-PCR) after induction of differentiation of human iPS cells into intestinal epithelial cells; assay type: cell-based
Protocol: Induction of differentiation of human iPS cells into intestinal epithelial cells was started in a state where undifferentiated colonies of the human iPS cells accounted for about 70% of the culture dish. […] was induced to differentiate into endoderm by culturing for two days in Roswell Park Memorial Institute (RPMI)+Glutamax medium containing 0.5% FBS, 100 ng/mL activin A, 100 units/mL penicillin G, and 100 μg/mL streptomycin and then culturing for one day in RPMI+Glutamax medium, containing 2% FBS, 100 ng/mL activin A, 100 units/ml penicillin G, and 100 μg/mL streptomycin. Then, the cells were cultured in DMEM/F12 containing 2% FBS, 1% Glutamax, and 250 ng/mL FGF2 for 4 days to induce differentiation into intestinal stem cells. After this treatment, Y-27632 (Rho-binding kinase inhibitor) was added so that the concentration was 10 μmol/L, and the cells treated at 37° C. for 60 minutes in a CO2 incubator under the condition of 5% CO2/95% air were treated with actase for detaching. The detached cells were seeded on a 24-well cell culture plate coated with Matrigel which was diluted 30-fold with a human iPS cell culture medium and from which growth factors was removed. […]

[4] = tested on: intestinal epithelial cell-like cells derived from human iPS cells; experiment: Drug metabolism experiment (CYP3A4 and UGT activity) in intestinal epithelial cell-like cells derived from human iPS cells; assay type: cell-based; conditions: experiment 4, FF-1, Forskolin instead of 8-Br-cAMP from day 12 (FIG. 10)
Protocol: In experiment 3, the FF-1 strain was cultured for 5 days (day 0 to 5) to induce differentiation into endoderm, 4 days (day 5 to 9) to induce differentiation into intestinal stem cells, and 18 days (day 10 to 28) to induce differentiation into intestinal epithelial cells. In experiment 4, the FF-1 strain was cultured for 7 days (day 0 to 7) to induce differentiation into endoderm, 4 days (day 7 to day 11) to induce differentiation into intestinal stem cells, and 18 days (day 12 to day 30) to induce differentiation into intestinal epithelial cells. […]
After completing the differentiation induction, the differentiated cells were cultured at 37° C. in a culture medium (DMEM/F12 containing 1% Glutamax, 1% NEAA, 1% N2 supplement, 100 units/mL penicillin G, 100 μg/mL streptomycin, and 20 ng/mL EGF) containing 5 μmol/L midazolam and 10 μmol/L 7-hydroxycoumarin, and the culture medium was sampled after 24 hours (experiments 3 and 4) or 2 hours (experiment 5). The metabolic activity was calculated from the amount of 1-hydroxymidazolam or 7-hydroxycoumarin glucuronide in the culture medium, which was measured using a liquid chromatography-mass spectrometer (LC-MS/MS). After completing the metabolic experiment, protein quantification was performed, and the metabolic activity was corrected with the amount of protein.

[5] = tested on: human iPS cell-derived small intestinal epithelial cells; experiment: in vitro
Protocol: as §1, §2

Caco-2 cells = experiment: in vitro
Protocol: as §2

[6] = in humans, from References 1 to 6

Row | Compound | Papp A→B at 60 min (in vitro [1]) | Papp A→B at 60 min (in vitro [2]) | Fa · Fg/100 [3, 6] | further results
1 | CCN1CCCC1CNC(=O)c1cc(S(N)(=O)=O)ccc1OC (stereo not shown) [Sulpiride, sulpiride] | 1.45 ×10⁻⁶ cm/s |  |  | 
2 | CCOC(=O)[C@H](CCc1ccccc1)N[C@@H](C)C(=O)N1CCC[C@H]1C(=O)O [Enalapril, enalapril] | 1.93 ×10⁻⁶ cm/s | 0.19 ×10⁻⁶ cm/s | 0.6 | 
3 | C=C[C@@]1(C)CC(=O)[C@]2(O)[C@@]3(C)[C@@H](O)CCC(C)(C)[C@@H]3[C@H](O)[C@H](OC(C)=O)[C@@]2(C)O1 [Forskolin] |  |  |  | effect on the expressions of CYP3A4 and ABCB1/MDR1 (human iPS cells; experiment 1, Windy, compared with 8-Br-cAMP): drastically exceeded that of 8-Br-cAMP; expression level of CYP3A4 and SGLT1 (human iPS cells; experiment 2, Windy, Forskolin alone day 8 to 26, vs 8-Br-cAMP and IBMX in combination (FIG. 5)): significantly increased; CYP3A4 activity [4]: further significant increase
4 | Cc1cc(=O)n(-c2ccccc2)n1C [Antipvrine, antipyrine] | 55.6 ×10⁻⁶ cm/s |  |  | 
5 | C=CC[C@@H]1/C=C(\C)C[C@H](C)C[C@H](OC)[C@H]2O[C@@](O)(C(=O)C(=O)N3CCCC[C@H]3C(=O)O[C@H](/C(C)=C/[C@@H]3CC[C@@H](O)[C@H](OC)C3)[C@H](C)[C@@H](O)CC1=O)[C@H](C)C[C@@H]2OC [Tacrolimus, tacrolimus] | 14.3 ×10⁻⁶ cm/s | 12.3 ×10⁻⁶ cm/s | 0.136 | 
6 | NC(=O)c1ncn([C@@H]2O[C@H](CO)[C@@H](O)[C@H]2O)n1 [Ribavirin, ribavirin] | 3.3 ×10⁻⁶ cm/s | 0.32 ×10⁻⁶ cm/s | 0.85 | 
7 | CN(C)C(=N)N=C(N)N [Metformin, metformin] | 2.43 ×10⁻⁶ cm/s | 0.52 ×10⁻⁶ cm/s | 0.71 | 
8 | lucifer yellow |  |  |  | Papp A→B [5]: 0.3 ×10⁻⁶ cm/s; Papp A→B (Caco-2 cells): 0.06 ×10⁻⁶ cm/s; Fa · Fg/100 ([3]; in vivo): 0
9 | CC[C@H]1OC(=O)[C@H](C)[C@@H](O[C@H]2C[C@@](C)(OC)[C@@H](O)[C@H](C)O2)[C@H](C)[C@@H](O[C@@H]2O[C@H](C)C[C@H](N(C)C)[C@H]2O)[C@](C)(O)C[C@@H](C)C(=O)[C@H](C)[C@@H](O)[C@]1(C)O [Erythromycin, erythromycin] | 1.24 ×10⁻⁶ cm/s | 0.45 ×10⁻⁶ cm/s |  | 
10 | Cn1c(=O)c2c(ncn2C)n(C)c1=O [Caffeine, caffeine] | 52.4 ×10⁻⁶ cm/s |  |  | 
11 | CCCC(=O)Nc1ccc(OCC(O)CNC(C)C)c(C(C)=O)c1 (stereo not shown) [Acebutolol, acebutolol] | 2.3 ×10⁻⁶ cm/s | 0.35 ×10⁻⁶ cm/s |  | 
12 | Cc1ncc2n1-c1ccc(Cl)cc1C(c1ccccc1F)=NC2 [Midazolam, midazolam] |  |  | 0.369 | Papp A→B (in vitro [1]): 48.3 ×10⁻⁶ cm/s; Papp A→B (in vitro [2]): 38.7 ×10⁻⁶ cm/s
13 | NS(=O)(=O)c1cc2c(cc1Cl)NCNS2(=O)=O [Hydrochlorothiazide, hydrochlorothiazide] | 4.4 ×10⁻⁶ cm/s | 2.44 ×10⁻⁶ cm/s | 0.67 | 
